Laboratory results from patent US20100249161A1, “2- ( 2 -HYDROXYPHENYL) -QUINAZOLIN-4-ONES USEFUL FOR TREATING OBESITY AND DIABETES” (priority 2006, published 2010).

Row | SMILES | melting point [°C]
1 | Cc1c(Cl)cc(C(C)(C)C)c(O)c1-c1nc2ccc(F)cc2c(=O)[nH]1 [Example 2, 2-(3-tert-Butyl-5-chloro-2-hydroxy-6-methyl-phenyl)-6-fluoro-3H-quinazolin-4-one] | 224 to 225
2 | Cc1c(F)cc(C(C)(C)C)c(O)c1-c1nc2ccc(F)cc2c(=O)[nH]1 [Example 3, 2-(-3-tert-Butyl-5-fluoro-2-hydroxy-6-methyl-phenyl)-6-fluoro-3H-quinazolin-4-one] | 247 to 248
3 | CC(C)(C)c1cc2c(c(-c3nc4ccc(S(=O)(=O)C(F)(F)F)cc4c(=O)[nH]3)c1O)CCO2 [Example 7, 2-(6-tert-Butyl-5-hydroxy-2,3-dihydro-benzofuran-4-yl)-6-trifluoromethanesulfonyl-3H-quinazolin-4-one] | 235 to 237
4 | CCc1c(Cl)cc(C(C)(C)C)c(O)c1-c1nc2ccc(S(=O)(=O)C(F)(F)F)cc2c(=O)[nH]1 [Example 8, 2-(-3-tert-Butyl-5-chloro-2-hydroxy-6-ethyl-phenyl)-6-trifluoromethanesulfonyl-3H-quinazolin-4-one] | 285 to 286

Next, values leading:

Row | melting point [°C] | SMILES
5 | 297 to 298 | Cc1c(Cl)cc(C(C)(C)C)c(O)c1-c1nc2ccc(S(=O)(=O)C(F)(F)F)cc2c(=O)[nH]1 [Example 4, 2-(3-tert-Butyl-5-chloro-2-hydroxy-6-methyl-phenyl)-6-trifluoromethanesulfonyl-3H-quinazolin-4-one]
6 | 257 to 258 | Cc1c(F)cc(C(C)(C)C)c(O)c1-c1nc2ccc(S(=O)(=O)C(F)(F)F)cc2c(=O)[nH]1 [Example 6, 2-(3-tert-Butyl-5-fluoro-2-hydroxy-6-methyl-phenyl)-6-trifluoromethanesulfonyl-3H-quinazolin-4-one]
